Like-named read-outs stand apart in the source and are kept apart here.
Key:
A549 cancer cells = assay: MTT cell viability assay, dark or photoactivated; format: cell-based, human; details: 4 h incubation, kept in the dark, viability after 48 h, MTT, read-out: IC50 dark
Procedure: Cells were cultured in 96-well plates at a density of 3000 (A549), 2500 (HeLa), or 5000 (PC-3, 1BR.3.G, and MRC-5) cells per well in cell culture medium and allowed to attach for 24 h. Solutions of the complexes at different concentrations were prepared for cell treatments. In all cases, the solid compounds were weighed using an analytical balance (Mettler Toledo AX205DR) to ensure precise measurements. Subsequently, 5 mM solutions were prepared using DMSO. Solutions were then diluted in water to reach a concentration of 1 mM and then, aliquots were taken and diluted in culture medium to obtain solutions ranging from 0 to 50 μM. […] The cells were treated with these solutions in dark conditions or following the photoactivation protocol (see below). 48 h later the treatments were removed, and cells were washed with phosphate-buffered saline (PBS).
Initially, the effect of the complexes on the cell viability was determined by the 3-(4,5-dimethylthiazol-2-yl)-2,5-diphenyltetrazolium bromide (MTT) assay.[147] The cells were incubated for 2 h with 100 μL of culture medium together with 10 μL of MTT (Sigma-Aldrich) at 0.5 mg/mL. After discarding the medium, DMSO was added to each well to dissolve the purple formazan crystals. The absorbance of each well was determined on a Multiscan Plate Reader (Synergy 4, Biotek, Winooski) at a wavelength of 570 nm. Cell viability was also assessed using the CyQUANT Direct Cell Proliferation Assay (Thermo Fisher Scientific), following the manufacturer’s instructions. Briefly, after the treatments, the cells were washed with PBS, and an equal volume of culture medium and CyQUANT mix was added to each well. The plates were then incubated for 1 h at 37 °C. Subsequently, the fluorescence intensity was bottom read using a Multiscan Plate Reader (Synergy 4, Biotek, Winooski) with excitation and emission filters of 485 and 528 nm, respectively. In both assays, at least three replicates were measured for each treatment. The concentration that reduces the cell viability by 50% (IC50) was established using the Gen5 software (BioTek). Three independent experiments were carried out for each compound. […] The phototoxicity index (PI = IC50,dark/IC50,light) was determined.
To assess the photodynamic activity of the complexes, cells were incubated with the complexes for 4 h to enable their intracellular accumulation. The cells were then irradiated with light with a wavelength of 460 nm (blue), 530 nm (green), or 655 nm (red) for 1 h using a LED system (LuxLight) with an effective power of 6.7 mW cm^–2, which provides a total light dose of 24.1 J cm^–2. The LED system was positioned at 25 mm from the cell culture plates.

[1] = pKa determination (absorbance vs pH); format: physicochemical; details: H2O/DMSO (98/2, v/v) solution; DMSO/H2O (2/98, v/v), Bu4NBF4 5 mM; piperidine ring; read-out: pKa
Procedure: Solutions of complexes 5 and 6 (2.00 × 10^–5 M) and Imepip ligand (2.00 × 10^–3 M) in H2O/DMSO (98/2, v/v) mixture with n-Bu4NBF4 (5 mM) were prepared. The presence of the salt ensured the conductivity of the media. Evolution of the peaks was studied at different pH by recording the absorbance spectrum. Aliquots of 10 μL of HCl (0.002–0.020 M) or NaOH (0.002–0.020 M) were added to a solution of 2.4 mL of complex to vary the pH. The absorbance versus pH plot enables us to determine one constant according to the equation from the Wilson and Lester method (eq 2):[146] [drawing 23] 2 where Aa is the absorbance for the acid species, Ab is the absorbance for the basic species, and Am is the absorbance of the mixture. The intersection obtained by representing log(Am – Aa)/(Ab – Am) versus pH provides the pKa.

[2] = degassed acetonitrile; cited from earlier work
[3] = H2O/DMSO (95:5); cited from earlier work
A549 = details: 425 nm, dose 1.2 J cm‐2, ref e (ACS Appl. Mater. Interfaces, 2017, 9, 42471; main text ref 24); cited from earlier work
HeLa = details: 425 nm, dose 1.2 J cm‐2, ref e (ACS Appl. Mater. Interfaces, 2017, 9, 42471; main text ref 24); cited from earlier work
SK‐MEL28 = details: visible light, dose 100 J cm‐2, ref m (Inorg. Chem. 2016, 55, 83); cited from earlier work
[4] = 1O2 quantum yield determination with DPBF; details: acetonitrile
Procedure: It was performed for complexes 1–8 in acetonitrile according to a relative procedure adapted from the literature[132]−[134] based on monitoring the oxidation of 1,3-diphenylisobenzofuran (DPBF, yellow) to 1,2-dibenzoylbenzene (colorless) photosensitized by the Ir(III) complexes. DPBF was used as an ^1O2 scavenger due to its fast reaction with this molecule. Fresh stock air-equilibrated solutions of photosensitizers (6.00 × 10^–6 M) and DPBF (1.50 × 10^–4 M) in acetonitrile were prepared. In a quartz cell, 1 mL of DPBF solution, 0.5 mL of complex solution, and 1.5 mL of acetonitrile were mixed to prepare a final solution with 5.00 × 10^–5 M DPBF and 1.00 × 10^–6 M complex. The final solutions were studied by recording UV–vis absorption spectra at room temperature in dark conditions (over a period of 6 min with time intervals of 2 min), under blue light irradiation (λexc = 470 nm, “Medusa” photoreactor) and under green light irradiation (λexc = 530 nm, “Medusa” photoreactor) for 5 s irradiation intervals during a total exposure period of 20 s. Absorption UV–vis spectra were recorded after every irradiation interval.
The consumption of DPBF probe was measured by monitoring its absorbance intensity decrease at 410 nm with irradiation time. ^1O2 generation quantum yield (ϕΔ) was calculated from eq 1 using Rose Bengal or [Ru(bpy)3]^2+ as reference for complexes with pbpz and pbpn ligands, respectively: [drawing 22] 1 where s and ref subscripts correspond to the complex and the reference, ϕΔ is the ^1O2 generation quantum yield (0.53 for Rose Bengal[135] and 0.56 for [Ru(bpy)3]Cl2[132] in degassed acetonitrile), S is the slope of the plots of the −ln(normalized absorbance) of DPBF at 410 nm vs the irradiation time, and F is the correction factor of absorption, which is given by F = 1–10^–O.D. (where O.D. is the optical density at 470 nm of solutions of complexes and references). The reproducibility of the results was confirmed by performing each experiment three times.
The stability of DPBF probe was studied in dark conditions and under light irradiation. In dark conditions and under green light irradiation the probe remains unaltered. However, under blue light irradiation, a photobleaching of DPBF was observed. Probe consumption was approximately 6.5% every 5 s. Therefore, a working interval of 20 s was chosen, where 75% of the probe remains stable. To calculate the ϕΔ, a correction factor was applied to the absorbance at 410 nm: a 6.5% of the previous value was added to each absorbance to counteract self-consumption of the probe (i.e., to the absorbance at 10 s, a 6.5% of the absorbance at 5 s was added).

CT26 = test system: CT26; design: method as in p (Pozza et al., Inorg. Chem. 2023); details: 540 nm, dose 9 J cm‐2, ref p (Pozza et al., Inorg. Chem. 2023); cited from earlier work
HT29 = test system: HT29; design: method as in p (Pozza et al., Inorg. Chem. 2023); details: 540 nm, dose 9 J cm‐2, ref p (Pozza et al., Inorg. Chem. 2023); cited from earlier work
RPE‐1 = test system: RPE‐1; design: method as in p (Pozza et al., Inorg. Chem. 2023); details: cited from earlier work
[5] = 540 nm, dose 9 J cm‐2, ref p (Pozza et al., Inorg. Chem. 2023)
[6] = 620 nm, dose 6.7 J cm‐2, ref p (Pozza et al., Inorg. Chem. 2023)

Question: With `c1cn(CCN2CCCCC2)cn1` [(N-ethylpiperidyl)imidazole, reference compound] as the compound, how does the IC50 (A549 cancer cells; A549) read?
Answer: 68 ± 2 µM

Question: And the IC50 (A549 cancer cells; Homo sapiens, A549, A549)?
Answer: > 50 µM

Question: And the pKa [1]?
Answer: 7.1

Question: What does the source list for `O=C([O-])c1c(Cl)c(Cl)c(Cl)c(Cl)c1-c1c2cc(I)c(=O)c(I)c-2oc2c(I)c([O-])c(I)cc12.[Na+].[Na+]` [Rose Bengal]?
Answer: 1O2 generation quantum yield (ϕΔ) of reference [2]: 0.53; 1O2 generation quantum yield (ϕΔ) of reference [3]: 0.76

Question: Which PI/Dose (A549) does the source give for `F[P-](F)(F)(F)(F)F.[Ir+3].[c-]1ccccc1-c1ccccn1.[c-]1ccccc1-c1ccccn1.c1ccc2cc3[nH]c(-c4ccc5ccccc5n4)nc3cc2c1` [[Ir(N^∧N)(ppy)2]PF6] here?
Answer: 268

Question: And the PI/Dose (HeLa)?
Answer: 397

Question: What does the source list for `[Ru+2].[c-]1cccc2c1c1ncccc1c1nc3cc4ccccc4cc3nc21.c1ccc(-c2ccccn2)nc1.c1ccc(-c2ccccn2)nc1` [[Ru(bpy)2(pbpn)]+]?
Answer: PI (SK‐MEL28): > 1400; PI/Dose (SK‐MEL28): > 140

Question: With `[Cl][Ru][Cl].c1ccc(-c2ccccn2)nc1.c1ccc(-c2ccccn2)nc1.c1ccc(-c2ccccn2)nc1` [[Ru(bpy)3]Cl2, reference compound] as the compound, how does the “Slope (S) of ‐ln(normalized Abs) vs time, photooxidation of DPBF” value ([4]; λir = 470 nm) read?
Answer: 0.0535

Question: What about the “Slope (S) of ‐ln(normalized Abs) vs time, photooxidation of DPBF” value ([4]; λir = 530 nm) of the same compound?
Answer: 0.0057

Question: And the “1O2 generation quantum yield (ϕΔ) of reference” value [2]?
Answer: 0.56

Question: And the “1O2 generation quantum yield (ϕΔ) of reference” value [3]?
Answer: 0.18

Question: With `[Ru+2].c1ccc2cc3nc4c5cccnc5c5ncccc5c4nc3cc2c1.c1ccc2cc3nc4c5cccnc5c5ncccc5c4nc3cc2c1.c1cnc2c(c1)ccc1cccnc12` [[Ru(dppn)2(phen)]2+] as the compound, how does the PI (CT26) read?
Answer: 1666

Question: And the PI/Dose (CT26)?
Answer: 185.1

Question: And the PI (HT29)?
Answer: 556

Question: What about the PI/Dose (HT29) of the same compound?
Answer: 61.8

Question: And the PI (RPE‐1; [5])?
Answer: 556

Question: And the PI/Dose (RPE‐1; [5])?
Answer: 61.8

Question: And the PI (RPE‐1; [6])?
Answer: 333

Question: And the PI/Dose (RPE‐1; [6])?
Answer: 49.7
